Test results published in publication PMC10384936, “Identification and Biological Characterization of the Pyrazolo[3,4-d]pyrimidine Derivative SI388 Active as Src Inhibitor” (Pharmaceuticals, 2023).

How the values were obtained:
[1] = molecular target: T1, Src (Homo sapiens, UniProt P12931); assay: Src enzymatic assay (ADP-Glo kinase assay); assay type: biochemical; conditions: for Ki: mean of at least three experiments, 100 μM ATP
T1 construct: purchased Merck-Millipore
Description: (§1) Src, Fyn, and Abl were purchased from Merck-Millipore. Reactions were performed according to the manufacturer’s instructions with minor modifications. All substrates were used at least at twice the concentration of apparent Km. In detail: Src reactions were performed using 500 μM Src-peptide (KVEKIGEGTYGVVYK), 100 μM ATP, and 0.00087% NP-40; Fyn reactions were performed using 360 μM Src-peptide (KVEKIGEGTYGVVYK), 200 μM ATP, and 0.0026% NP-40; Abl reactions were performed using 50 μM abltide (EAIYAAPFAKKK), 30 μM ATP, and 0.00087% NP-40. All reactions were performed using 10–50 ng of enzyme and 10% DMSO in 10 μL of kinase buffer (8 mM MOPS-NaOH pH7.0, 0.2 mM EDTA, 10 mM MgAc) at 30 °C for 10 min.
(§2) To avoid peptide adsorbing to the plastic surface, protein low-binding tubes were used. ADP-Glo kinase assay (Promega) was then used to detect kinase activity according to the manufacturer’s instructions with minor modifications. In detail, reactions were transferred to white 384 well-plates and stopped by adding 10 µL of ADP-Glo reagent (Promega) for 50 min at room temperature. A total of 20 μL of detection reagent (Promega) was then added for 30 min and the reaction read using a GloMax Discover microplate reader (Promega). Data were plotted using GraphPad Prism 5.0. IC50 values were obtained according to Equation (1):v = V/{1 + (I/IC50)} (1) where v is the measured reaction velocity, V is the apparent maximal velocity in the absence of inhibitor, I is the inhibitor concentration, and IC50 is the 50% inhibitory dose. Compounds tested were assumed to act as fully ATP-competitive inhibitors. Therefore, Ki values were calculated according to Equation (2):Ki = IC50/(1+ […]) (2) where Ki is the affinity of the inhibitor to the enzyme, S is the ATP concentration, and Km is the affinity of ATP calculated according to the Michaelis–Menten equation.

[2] = molecular target: T2, Abl (Homo sapiens, UniProt P00519); assay: Abl enzymatic assay (ADP-Glo kinase assay); assay type: biochemical
T2 construct: purchased Merck-Millipore
T2 sequence (P00519 whole entry, species assumed): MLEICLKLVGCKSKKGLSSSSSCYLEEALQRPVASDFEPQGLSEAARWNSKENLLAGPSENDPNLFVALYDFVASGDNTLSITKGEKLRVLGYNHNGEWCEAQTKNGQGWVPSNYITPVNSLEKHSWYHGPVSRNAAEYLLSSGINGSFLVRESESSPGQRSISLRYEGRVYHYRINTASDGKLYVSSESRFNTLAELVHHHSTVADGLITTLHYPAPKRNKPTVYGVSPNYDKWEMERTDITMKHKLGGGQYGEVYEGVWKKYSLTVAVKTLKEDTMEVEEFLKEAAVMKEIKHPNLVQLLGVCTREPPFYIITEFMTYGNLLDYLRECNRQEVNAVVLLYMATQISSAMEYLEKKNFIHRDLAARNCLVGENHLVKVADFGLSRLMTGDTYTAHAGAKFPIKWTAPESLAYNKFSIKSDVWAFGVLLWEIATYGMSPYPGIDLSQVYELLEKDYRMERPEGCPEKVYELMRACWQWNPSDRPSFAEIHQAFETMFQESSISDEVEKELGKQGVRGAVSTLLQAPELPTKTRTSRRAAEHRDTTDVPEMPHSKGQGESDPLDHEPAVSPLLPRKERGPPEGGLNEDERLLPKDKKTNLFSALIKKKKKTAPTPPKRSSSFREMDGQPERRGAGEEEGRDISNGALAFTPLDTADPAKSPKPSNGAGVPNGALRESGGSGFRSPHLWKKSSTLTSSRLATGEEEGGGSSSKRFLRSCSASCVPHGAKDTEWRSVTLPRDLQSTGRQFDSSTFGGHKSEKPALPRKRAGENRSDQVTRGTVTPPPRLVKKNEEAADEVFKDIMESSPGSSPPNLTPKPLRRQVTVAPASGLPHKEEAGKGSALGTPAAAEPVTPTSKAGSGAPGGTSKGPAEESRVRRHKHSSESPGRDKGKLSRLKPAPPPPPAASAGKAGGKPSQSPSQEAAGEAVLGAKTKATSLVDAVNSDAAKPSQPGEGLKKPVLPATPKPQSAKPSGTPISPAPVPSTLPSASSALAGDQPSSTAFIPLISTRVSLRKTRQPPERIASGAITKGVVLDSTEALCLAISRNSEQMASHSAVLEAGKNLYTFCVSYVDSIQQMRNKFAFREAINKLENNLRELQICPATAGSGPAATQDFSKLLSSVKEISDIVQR
Description: as §1, §2

[3] = molecular target: T3, Fyn (Homo sapiens, UniProt P06241); assay: Fyn enzymatic assay (ADP-Glo kinase assay); assay type: biochemical; conditions: for Ki: mean of at least three experiments, 200 μM ATP
T3 construct: purchased Merck-Millipore
T3 sequence (P06241 whole entry, species assumed): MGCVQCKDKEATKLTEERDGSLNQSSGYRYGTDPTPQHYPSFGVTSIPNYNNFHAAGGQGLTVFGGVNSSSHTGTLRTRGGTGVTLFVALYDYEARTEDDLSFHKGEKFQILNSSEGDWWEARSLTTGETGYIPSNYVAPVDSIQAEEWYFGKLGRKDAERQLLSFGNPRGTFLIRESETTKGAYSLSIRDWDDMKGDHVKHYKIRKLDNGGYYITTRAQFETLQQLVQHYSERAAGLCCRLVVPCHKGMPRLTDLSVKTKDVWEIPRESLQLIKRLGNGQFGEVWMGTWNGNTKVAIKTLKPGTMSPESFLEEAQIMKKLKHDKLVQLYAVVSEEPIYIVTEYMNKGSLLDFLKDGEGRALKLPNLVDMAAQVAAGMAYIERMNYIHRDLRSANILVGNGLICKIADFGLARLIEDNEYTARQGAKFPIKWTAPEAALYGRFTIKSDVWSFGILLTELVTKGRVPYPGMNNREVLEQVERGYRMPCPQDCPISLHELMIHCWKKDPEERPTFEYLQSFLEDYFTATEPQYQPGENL
Description: as §1, §2

T1 sequence (P12931 whole entry, species assumed): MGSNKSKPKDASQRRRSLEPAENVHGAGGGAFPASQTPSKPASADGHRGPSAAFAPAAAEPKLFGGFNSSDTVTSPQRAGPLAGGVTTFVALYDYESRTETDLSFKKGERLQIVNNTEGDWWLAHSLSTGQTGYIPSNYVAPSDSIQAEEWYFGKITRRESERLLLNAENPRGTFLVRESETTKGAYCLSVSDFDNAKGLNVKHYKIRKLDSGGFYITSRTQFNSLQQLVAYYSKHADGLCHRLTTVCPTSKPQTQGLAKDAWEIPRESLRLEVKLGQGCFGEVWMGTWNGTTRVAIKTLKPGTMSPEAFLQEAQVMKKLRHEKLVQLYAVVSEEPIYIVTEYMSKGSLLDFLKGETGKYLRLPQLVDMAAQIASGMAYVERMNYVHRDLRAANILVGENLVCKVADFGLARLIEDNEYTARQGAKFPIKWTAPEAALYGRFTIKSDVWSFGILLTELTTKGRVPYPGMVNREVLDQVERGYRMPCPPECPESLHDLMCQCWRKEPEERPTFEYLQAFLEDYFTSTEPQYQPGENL

SMILES	Activity towards Src in cell-free assay (in words) [1]	inhibition at 1 µM [1]	Activity towards Bcr-Abl in cell-free assay (in words) [2]	inhibition at 10 µM [2]	inhibition at 10 µM [1]	inhibition at 1 µM [3]	inhibition at 10 µM [3]	inhibition at 1 µM [2]	melting point	inhibition at 100 µM [1]	inhibition at 100 µM [3]	Ki [3]	Ki [1]
CSc1nc(Nc2ccc(Cl)cc2)c2cnn(CC(Cl)c3ccccc3)c2n1 (centres unmarked) [2b, 1-(2-Chloro-2-phenylethyl)-N-(4-chlorophenyl)-6-(methylthio)-1H-pyrazolo[3,4-d]pyrimidin-4-amine]	inactive	24%	inactive	23%									
CC(C)Sc1nc(Nc2cccc(Cl)c2)c2cnn(CC(Cl)c3ccccc3)c2n1 (centres unmarked) [2d, 1-(2-Chloro-2-phenylethyl)-N-(3-chlorophenyl)-6-(isopropylthio)-1H-pyrazolo[3,4-d]pyrimidin-4-amine]				24%	34%		8%			99.5%	26%		
Clc1ccccc1Nc1nc(SCCN2CCOCC2)nc2c1cnn2CC(Cl)c1ccccc1 (centres unmarked) [2e, 1-(2-Chloro-2-phenylethyl)-N-(2-chlorophenyl)-6-((2-morpholinoethyl)thio)-1H-pyrazolo[3,4-d]pyrimidin-4-amine]				26.3%					117 to 118 °C				
Cl.Oc1cc(Nc2nc(SCCN3CCOCC3)nc3c2cnn3CC(Cl)c2ccccc2)ccc1F (centres unmarked) [2f, 5-({1-(2-Chloro-2-phenylethyl)-6-[(2-morpholinoethyl)thio]-1H-pyrazolo[3,4-d]pyrimidin-4-yl)amino)-2-fluorophenol hydrochloride]				67%	79%			3%	238 to 239 °C				
Oc1cc(Nc2nc(SCCN3CCOCC3)nc3c2cnn3CC(Cl)c2ccccc2)c(F)cc1F (centres unmarked) [2g, 5-((1-(2-Chloro-2-phenylethyl)-6-((2-morpholinoethyl)thio)-1H-pyrazolo[3,4-d]pyrimidin-4-yl)amino)-2,4-difluorophenol]		43.3%		83%	93.6%			33.5%	146 to 149 °C				
Fc1cccc(Nc2nc(C(F)(F)F)nc3c2cnn3CC(Cl)c2ccccc2)c1 (centres unmarked) [2l, 1-(2-Chloro-2-phenylethyl)-N-(3-fluorophenyl)-6-(trifluoromethyl)-1H-pyrazolo[3,4-d]pyrimidin-4-amine]						19%	10%	40%	164 to 166 °C				
FC(F)(F)c1nc(Nc2cccc(Cl)c2)c2cnn(CC(Cl)c3ccccc3)c2n1 (centres unmarked) [2m, N-(3-Chlorophenyl)-1-(2-chloro-2-phenylethyl)-6-trifluoromethyl-1H-pyrazolo[3,4-d]pyrimidin-4-amine]				18%	67%	2.5%	20%	15%	88 to 90 °C				
CCCc1nc(Nc2ccccc2)c2cnn(CC(Cl)c3ccc(Cl)cc3)c2n1 (centres unmarked) [2s, 1-(2-Chloro-2-(4-chlorophenyl)ethyl)-N-phenyl-6-propyl-1H-pyrazolo[3,4-d]pyrimidin-4-amine]									154 to 156 °C			10.2 ± 2.11 µM	

Further lines, results first:

Activity towards Src in cell-free assay (in words) [1]	inhibition at 1 µM [1]	Activity towards Bcr-Abl in cell-free assay (in words) [2]	inhibition at 10 µM [2]	inhibition at 10 µM [1]	inhibition at 1 µM [3]	inhibition at 10 µM [3]	inhibition at 1 µM [2]	melting point	inhibition at 100 µM [1]	inhibition at 100 µM [3]	Ki [3]	Ki [1]	SMILES
	16%		35%	27%	33%	64%	18%	128 to 131 °C					CCSc1nc(Nc2ccccc2)c2cnn(CC(Cl)c3ccccc3)c2n1 (centres unmarked) [2c, 1-(2-Chloro-2-phenylethyl)-6-(ethylthio)-N-phenyl-1H-pyrazolo[3,4-d]pyrimidin-4-amine]
				12%		57%	34%	174 to 176 °C	98.3%	82%	10.3 ± 3.13 µM		CCc1nc(Nc2ccccc2)c2cnn(CC(Cl)c3ccccc3)c2n1 (centres unmarked) [2h, 1-(2-Chloro-2-phenylethyl)-6-ethyl-N-phenyl-1H-pyrazolo[3,4-d]pyrimidin-4-amine]
				56%		15%		189 to 190 °C	98.8%	19%			Clc1cccc(Nc2nc(C3CCCC3)nc3c2cnn3CC(Cl)c2ccccc2)c1 (centres unmarked) [2i, 1-(2-Chloro-2-phenylethyl)-N-(3-chlorophenyl)-6-cyclopentyl-1H-pyrazolo[3,4-d]pyrimidin-4-amine]
				5%		13%	39%	134 to 136 °C	95.3%	38%			ClC(Cn1ncc2c(Nc3ccccc3)nc(C3CCCCC3)nc21)c1ccccc1 (centres unmarked) [2j, 1-(2-Chloro-2-phenylethyl)-6-cyclohexyl-N-phenyl-1H-pyrazolo[3,4-d]pyrimidin-4-amine]
			39%	50.3%		47%		139 to 141 °C	99.2%	66%	3.79 ± 1.01 µM		FC(F)(F)c1nc(Nc2ccccc2)c2cnn(CC(Cl)c3ccccc3)c2n1 (centres unmarked) [2k, 1-(2-Chloro-2-phenylethyl)-N-phenyl-6-(trifluoromethyl)-1H-pyrazolo[3,4-d]pyrimidin-4-amine]
	11%		18%	13%	16%	23%	5%	130 to 140 °C (dec.)					ClC(Cn1ncc2c(Nc3ccccc3)nc(-c3ccccc3)nc21)c1ccccc1 (centres unmarked) [2n, 1-(2-Chloro-2-phenylethyl)-N,6-diphenyl-1H-pyrazolo[3,4-d]pyrimidin-4-amine]
						8%		82 to 84 °C					Clc1cccc(Nc2nc(-c3ccccc3)nc3c2cnn3CC(Cl)c2ccccc2)c1 (centres unmarked) [2o, 1-(2-Chloro-2-phenylethyl)-N-(3-chlorophenyl)-6-phenyl-1H-pyrazolo[3,4-d]pyrimidin-4-amine]
	14%		12%	55%	15%	60%		227 to 230 °C			2.68 ± 0.37 µM	14.4 ± 4.4 µM	CSc1nc(Nc2ccccc2)c2cnn(CC(Cl)c3ccc(F)cc3)c2n1 (centres unmarked) [2p, 1-(2-Chloro-2-(4-fluorophenyl)ethyl)-6-(methylthio)-N-phenyl-1H-pyrazolo[3,4-d]pyrimidin-4-amine]
	29%		25%	48%	24%	78%	20%	202 to 203 °C			2.07 ± 1.1 µM	16.5 ± 4 µM	Cc1nc(Nc2ccccc2)c2cnn(CC(Cl)c3ccc(Cl)cc3)c2n1 (centres unmarked) [2q, 1-(2-Chloro-2-(4-chlorophenyl)ethyl)-6-methyl-N-phenyl-1H-pyrazolo[3,4-d]pyrimidin-4-amine]
				7.5%	48%	75%		193 to 195 °C			1.74 ± 0.71 µM		CCc1nc(Nc2ccccc2)c2cnn(CC(Cl)c3ccc(Cl)cc3)c2n1 (centres unmarked) [2r, 1-(2-Chloro-2-(4-chlorophenyl)ethyl)-6-ethyl-N-phenyl-1H-pyrazolo[3,4-d]pyrimidin-4-amine]
